According to US20230332230A1, “BIOMARKERS AND USES THEREOF IN THE TREATMENT OF CHRONIC HEPATITIS B INFECTION” (Janssen Sciences Ireland Unlimited Company, priority 2020, published 2023):

Legend:
Type in all cases: in vivo, human
[1] = test system: chronic hepatitis B (CHB) patients; test: Time to virological relapse after discontinuation of NUC treatment (Cox proportional hazard regression); details: for HR: hazard ratio for virological relapse after stop of treatment, treatment regimen tenofovir vs entecavir
Excerpt: (§1) Patients and Study Design: In this multi-center prospective study in Taiwan, 242 CHB patients were enrolled while in their last half year of a minimum 3-year treatment regimen with direct antivirals. Of them, 47 were excluded due to protocol violation, screening failure, lost to follow-up, withdrawal by the subject, use of immune related therapy, or on-treatment clinical relapse. An additional 14 were excluded as the analysis required patients to be hepatitis B e-antigen (HBeAg) negative, hepatitis virus (HBV) DNA < 60 IU/mL, and alanine transaminase (ALT) < 80 U/L at the last on-treatment visit, leaving 186 patients eligible for analysis.
(§2) Patients were followed for up to two years after treatment discontinuation while assessing virological and clinical relapse, provided that treatment was not re-initiated. Virological relapse was defined as HBV DNA ≥ 2000 IU/mL. Clinical relapse was defined as ALT level ≥ 2x ULN in addition to a virological relapse. A patient was denoted a sustained clinical responder in case no clinical and no virological relapse occurred during the entire follow-up period after treatment cessation.
(§3) Statistical Analysis: Continuous variables are presented as means ± standard deviations, categorical variables by counts and percentages. The Student t test and Fisher exact test were used to compare continuous and categorical covariates, respectively, between groups. Cumulative incidence of virological and clinical relapse after stop of treatment was assessed by Kaplan-Meier curves including the log-rank test. Cox proportional hazard regression analysis was applied for univariate and multivariate models of time to virological and clinical relapse. To assess associations to sustained clinical response, logistic regression analysis was performed. All statistical analyses were executed within the R(3.4.3) statistical software. Statistical tests were two-sided and considered significant at the 0.05 significance level.
(§4) Statistical Analysis of Genetics Data: All the statistical analyses were performed in R (3.4.3). The association between the SNPs and the time to clinical relapse and time to viral relapse was assessed using a Cox proportional hazard model, considering the prior treatment. • Surv(TIME_VIRAL_RELAPSE,STATUS_VIRAL_RELAPSE) ~ GENETIC + LAST_TREATMENT • Surv(TIME_CLINICAL _RELAPSE,STATUS_CLINICAL_RELAPSE) ~ GENETIC + LAST_TREATMENT
(§5) Merge With Genetic Data: For both clinical and virological relapse, the significant clinical covariates (Table 4 and Table 5) are merged with the corresponding significant hits from the GWAS analysis. Cox proportional regression analysis with lasso regularization is applied to assess the combined association of the clinical and genetic covariates to relapse. Note that a threshold was set to the absolute values of the coefficients to be included in the final Cox model, equal to 0.35 and 0.2 for clinical and virological relapse respectively.
(§6) Cumulative incidence of virological and clinical relapse after stop of treatment was assessed by Kaplan-Meier curves. In addition, Cox proportional hazard regression analysis (Therneau Terry M., et al., Statistics in Medicine. 2001, 20(13):2053-2054) was applied, obtaining univariate and multivariate models for time to virological and clinical relapse (model fits are provided in Table 23a and Table 23b for virological and clinical relapse respectively).
(§7) Statistical Analysis of Genetics Data: Considering that HBsAg status at the end of treatment and treatment regimen were predictive for onset of relapse, the association between the SNPs and onset of relapse was assessed using a Cox model^1 including HBsAg level at the last visit on treatment (high (≥ 100 IU/mL) vs. low (< 100 IU/mL)) and the antiviral treatment at enrollment (tenofovir vs. entecavir) as main effects. […]

[2] = test system: chronic hepatitis B (CHB) patients; test: Time to clinical relapse after discontinuation of NUC treatment (Cox proportional hazard regression)
Excerpt: as §1, §2, §3, §4, §5, §6, §7

[3] = test system: chronic hepatitis B (CHB) patients; test: Logistic regression model predicting clinical relapse before 6 months after stop of treatment; details: Table 12; model with treatment regimen, EOT HBsAg and all SNPs predicting CR
Procedure: Prediction of Clinical Relapse: The receiver operating characteristic (ROC) curve was analyzed for treatment regimen, EOT HBsAg (≥ 100 IU/mL vs < 100 IU/mL), rs4668818, rs948006, rs2934456, rs77586835, rs75876539, rs8050261, rs1542951, rs231770, rs9277535, or a combination of these covariates, in predicting clinical relapse (CR) after stop of treatment.

[4] = test system: chronic hepatitis B (CHB) patients; test: Logistic regression model predicting viral relapse before 3 months after stop of treatment; details: Table 13; model with treatment regimen, EOT HBsAg, baseline HBeAg status and all SNPs predicting VR
Procedure: Prediction of Virological Relapse: The receiver operating characteristic (ROC) curve was analyzed for treatment regimen, EOT HBsAg (≥ 100 IU/mL vs < 100 IU/mL), baseline HBeAg status, all 30 SNPs associated to virological relapse (VR), or a combination of these covariates, in predicting virological relapse (VR) after stop of treatment are represented on FIG. 22 (3 months), FIG. 23 (6 months), FIG. 24 (1 year) and FIG. 25 (2 years).

[5] = test system: chronic hepatitis B (CHB) patients; test: Sustained clinical response after discontinuation of NUC treatment (logistic regression)
Excerpt: Patients and Study Design: In this multi-center prospective study in Taiwan, 242 CHB patients were enrolled while in their last half year of a minimum 3-year treatment regimen with direct antivirals. Of them, 47 were excluded due to protocol violation, screening failure, lost to follow-up, withdrawal by the subject, use of immune related therapy, or on-treatment clinical relapse. An additional 14 were excluded as the analysis required patients to be hepatitis B e-antigen (HBeAg) negative, hepatitis virus (HBV) DNA < 60 IU/mL, and alanine transaminase (ALT) < 80 U/L at the last on-treatment visit, leaving 186 patients eligible for analysis. Patients were followed for up to two years after treatment discontinuation while assessing virological and clinical relapse, provided that treatment was not re-initiated. Virological relapse was defined as HBV DNA ≥ 2000 IU/mL. Clinical relapse was defined as ALT level ≥ 2x ULN in addition to a virological relapse. […] Cumulative incidence of virological and clinical relapse after stop of treatment was assessed by Kaplan-Meier curves including the log-rank test. […] Considering that HBsAg status was representative of disease progression, the association between the SNPs and sustained clinical response was assessed using a logistic model, considering HBsAg levels (high (≥ 100 IU/mL) vs. low (< 100 IU/mL)) at the last visit before end of antiviral treatment. […]

[6] = later after stopping entecavir treatment compared to tenofovir treatment, Example 1

## C=C1[C@H](CO)[C@@H](O)C[C@@H]1n1cnc2c(=O)[nH]c(N)nc21 [Entecavir, entecavir]
[1]; [6]
  Onset of virological relapse, average delay: 119 days
[2]; among the 110 clinical relapsers, later after stopping entecavir compared to tenofovir, Example 3
  Onset of clinical relapse, average delay: 100 days
[2]; [6]
  Onset of clinical relapse, average delay: 115 days

## C[C@H](Cn1cnc2c(N)ncnc21)OCP(=O)(O)O [Tenofovir, tenofovir]
[1]; Table 5, Example 1, Cox regression, treatment regimen vs entecavir, after stop of treatment
  Virological relapse, multivariate analysis HR (95% CI): 3.02
[1]; Table 5, Cox regression, treatment regimen vs entecavir, after stop of treatment, N = 186
  Virological relapse, univariate analysis HR (95% CI): 2.49 (1.77-3.49)
[1]; Table 11, clinical and genetic covariates, mean across 1000 iterations, vs entecavir
  Time to virological relapse, lasso regression, mean estimated hazard ratio: 2.662
[1]; Table 23a, Example 3, multivariate with age, baseline HBeAg, EOT HBsAg, vs entecavir
  Virological relapse, multivariate analysis HR (95% CI): 2.97 (2.10-4.20)
[1]; Table 23a, Example 3, multivariate with age, baseline HBeAg, EOT HBsAg, vs entecavir, listed as tenofovir
  Virological relapse, multivariate analysis HR (95% CI): 2.97
[1]; Table 23a, Example 3, vs entecavir
  Virological relapse, univariate analysis HR (95% CI): 2.49 (1.77-3.49)
[1]; multivariate Cox model with HBsAg at end of treatment and all 33 SNPs (Table 27a)
  HR: 7.26
[1]; multivariate Cox model with HBsAg at end of treatment and the 17 Virological signature SNPs (Table 27b)
  HR: 7.06
[2]; Table 4, Example 1, Cox regression, treatment regimen vs entecavir, after stop of treatment
  Clinical relapse, multivariate analysis HR (95% CI): 1.78 (1.20-2.64)
[2]; Table 4, Example 1, Cox regression, treatment regimen vs entecavir, after stop of treatment, listed as tenofovir
  Clinical relapse, multivariate analysis HR (95% CI): 1.74
[2]; Table 4, Cox regression, treatment regimen vs entecavir, after stop of treatment, N = 186
  Clinical relapse, univariate analysis HR (95% CI): 1.77 (1.19-2.62)
[2]; Table 10, clinical and genetic covariates, mean across 1000 iterations, vs entecavir
  Time to clinical relapse, lasso regression, mean estimated hazard ratio: 1.492
[2]; Table 23b, Example 3, multivariate with age, EOT HBsAg, vs entecavir
  Clinical relapse, multivariate analysis HR (95% CI): 1.87 (1.26-2.78)
[2]; Table 23b, Example 3, multivariate with age, EOT HBsAg, vs entecavir, listed as tenofovir
  Clinical relapse, multivariate analysis HR (95% CI): 1.80
[2]; Table 23b, Example 3, vs entecavir
  Clinical relapse, univariate analysis HR (95% CI): 1.77 (1.19-2.62)
[2]; Table 26b, HBsAg and treatment regimen as main effects plus six SNPs, vs entecavir
  Clinical relapse HR, Cox model including the Clinical SNP signature: 1.89
[2]; hazard ratio for clinical relapse after stop of treatment, treatment regimen tenofovir vs entecavir, multivariate Cox model with HBsAg at end of treatment and all nine SNPs
  HR: 1.75
[3]
  Clinical relapse before 6 months, odds ratio (Estimate): 4.008
[4]
  Viral relapse before 3 months, odds ratio (Estimate): 3010
[5]; Table 6, treatment regimen vs entecavir
  Sustained clinical response, univariate analysis OR (95% CI): 0.79 (0.29-2.03)
[5]; Table 15, Example 2, vs entecavir
  Sustained clinical response, univariate analysis OR (95% CI): 0.79 (0.29-2.03)
